Columns and labels:
Type in all cases: cell-based, human
TNF-α = experiment: LPS-stimulated PBMC cytokine production, multiplex cytokine analysis: TNF-α; conditions: PBMC 2×10^6 cells/ml, compound 1 hour, then 1 ng/ml LPS 18 hours
Description: (§1) Peripheral blood mononuclear cells (PBMCs) were isolated from the blood of healthy human donors by Ficoll cell separation. The PBMCs were seeded at a concentration of 2×10^6 cells/ml and treated for 1 hour at 37° C. with various concentrations of IMiD compounds or control DMSO (0.25%), before stimulation with 1 ng/ml LPS for 18 hours at 37° C.
(§2) Supernatant samples were subjected to multiplex cytokine analysis (Luminex IS100 instrument) to quantify secreted levels of IL-6, IL-8, IL1-beta (IL-1β), GM-CSF, MDC, MIP-1alpha (MIP-1α), MIP-1beta (MIP-1β) and TNF-alpha (TNF-α) (see e.g. FIGS. 7A-C).
(§3) IC50 (half maximal inhibitory concentration) values were calculated to measure the potency of each IMiD compound in inhibiting LPS-stimulated secretion of each cytokine (see Table 25).

IL-6 = experiment: LPS-stimulated PBMC cytokine production, multiplex cytokine analysis: IL-6; conditions: PBMC 2×10^6 cells/ml, compound 1 hour, then 1 ng/ml LPS 18 hours
Description: (§4) Peripheral blood mononuclear cells (PBMCs) were isolated from the blood of healthy human donors by Ficoll cell separation. […] Supernatant samples were subjected to multiplex cytokine analysis (Luminex IS100 instrument) to quantify secreted levels of IL-6, IL-8, IL1-beta (IL-1β), GM-CSF, MDC, MIP-1alpha (MIP-1α), MIP-1beta (MIP-1β) and TNF-alpha (TNF-α) (see e.g. FIGS. 7A-C). IC50 (half maximal inhibitory concentration) values were calculated to measure the potency of each IMiD compound in inhibiting LPS-stimulated secretion of each cytokine (see Table 25).

GM-CSF = experiment: LPS-stimulated PBMC cytokine production, multiplex cytokine analysis: GM-CSF; conditions: PBMC 2×10^6 cells/ml, compound 1 hour, then 1 ng/ml LPS 18 hours
Description: as §4

IL-8 = experiment: LPS-stimulated PBMC cytokine production, multiplex cytokine analysis: IL-8; conditions: PBMC 2×10^6 cells/ml, compound 1 hour, then 1 ng/ml LPS 18 hours
Description: as §1, §2, §3

IL-1β = experiment: LPS-stimulated PBMC cytokine production, multiplex cytokine analysis: IL-1β; conditions: PBMC 2×10^6 cells/ml, compound 1 hour, then 1 ng/ml LPS 18 hours
Description: as §4

MDC = experiment: LPS-stimulated PBMC cytokine production, multiplex cytokine analysis: MDC; conditions: PBMC 2×10^6 cells/ml, compound 1 hour, then 1 ng/ml LPS 18 hours
Description: as §4

MIP-1β = experiment: LPS-stimulated PBMC cytokine production, multiplex cytokine analysis: MIP-1β; conditions: PBMC 2×10^6 cells/ml, compound 1 hour, then 1 ng/ml LPS 18 hours
Description: as §4

MIP-1α = experiment: LPS-stimulated PBMC cytokine production, multiplex cytokine analysis: MIP-1α; conditions: PBMC 2×10^6 cells/ml, compound 1 hour, then 1 ng/ml LPS 18 hours
Description: as §1, §2, §3

[1] = system: IL-6, IL-8, IL-1β, GM-CSF, MDC, MIP-1α, MIP-1β and TNF-α; experiment: LPS-induced secretion of proinflammatory cytokines from PBMCs (whole multiplex panel, result in words); conditions: pre-treatment 1 hour, 1 ng/ml LPS 18 hours
Description: Peripheral blood mononuclear cells (PBMCs) from healthy volunteers were seeded at a concentration of 2×10^6 cells/ml and treated with the indicated concentrations of IMiD compounds or control DMSO (0.25%) for 1 hour, before stimulation with 1 ng/ml LPS. After 18 hours, proinflammatory cytokine levels in the supernatant were assessed by multiplex cytokine analysis.
as §1, §2

| IC50 (TNF-α) | IC50 (IL-6) | IC50 (GM-CSF) | IC50 (IL-8; Homo sapiens) | IC50 (IL-1β) | IC50 (MDC) | IC50 (MIP-1β; Homo sapiens) | IC50 (MIP-1α) | IC50 (IL-8) | IC50 (MIP-1β) | IC50 (TNF-α; Homo sapiens) | IC50 (IL-6; Homo sapiens) | IC50 (IL-1β; Homo sapiens) | IC50 (MIP-1α; Homo sapiens, PBMC) | IC50 (TNF-α; Homo sapiens, PBMC) | IC50 (IL-6; Homo sapiens, PBMC) | IC50 (GM-CSF; Homo sapiens, PBMC) | IC50 (IL-1β; Homo sapiens, PBMC) | IC50 (MDC; Homo sapiens, PBMC) | SMILES | LPS-induced secretion of proinflammatory cytokines from PBMCs (effect in words) [1] |
| --- | --- | --- | --- | --- | --- | --- | --- | --- | --- | --- | --- | --- | --- | --- | --- | --- | --- | --- | --- | --- |
| 0.0018 µM | 0.01 µM | 0.0092 µM | > 10 µM | 0.00085 µM | 0.0026 µM | > 10 µM | 0.19 µM |  |  |  |  |  |  |  |  |  |  |  | O=C1CCC(N2Cc3c(OCc4ccc(CN5CCOCC5)cc4)cccc3C2=O)C(=O)N1 (single isomer, unassigned) [Compound A] | inhibited |
| 0.0095 µM | 0.083 µM | 0.039 µM |  | 0.0062 µM | 0.012 µM |  | 0.45 µM | > 10 µM | > 10 µM |  |  |  |  |  |  |  |  |  | O=C1CCC(N2Cc3c(OCc4ccc(CN5CCOCC5)cc4)cccc3C2=O)C(=O)N1 (single isomer, unassigned) [Compound B] | inhibited |
|  |  |  | > 10 µM |  |  | > 10 µM |  |  |  | 0.034 µM | 0.06 µM | 0.054 µM | 0.3 µM |  |  |  |  |  | Cc1nc2cccc(N)c2c(=O)n1C1CCC(=O)NC1=O (stereo not shown) [Avadomide, 3-(5-amino-2-methyl-4-oxo-3,4-dihydroquinazolin-3-yl)piperidine-2,6-dione] | inhibited |
|  |  |  | > 10 µM |  |  | > 10 µM |  |  |  |  |  |  | > 10 µM | > 10 µM | > 10 µM | > 10 µM | > 10 µM | > 10 µM | O=C1CCC(N2C(=O)c3ccccc3C2=O)C(=O)N1 (stereo not shown) [Thalidomide, 2-(2,6-dioxopiperidin-3-yl)-2,3 dihydro-1H-isoindole-1,3-dione] | minimal to no effect |
